≈ marks a conversion by molar mass, not a printed value. Some results are limits rather than exact numbers.

The values below come from patent publication US20230406840A1, “N-(2-(3-CYANO-2-AZABICYCLO[3.1.0]HEXAN-2-YL)-2-OXOETHYL)QUINOLINE-4-CARBOXAMIDES” (AstraZeneca AB, priority 2022, published 2023).

Series [1] addresses Prolyl Oligopeptidase (hPREP) (Homo sapiens (Human), UniProt P48147). The series can be described thus: hPREP inhibition assay. In kind it is biochemical. The following applies: hPREP 0.6 nM, Z-Gly-Pro-amino-methylcoumarin 50 μM; read-out: PREP IC50. On the procedure:
Compounds were tested in a biochemical inhibition assay using Prolyl endopeptidase, Prolyl Oligopeptidase (hPREP) enzyme at 0.6 nM FAC (R&D Systems, 4308-SE) and the substrate Z-Gly-Pro-amino-methylcoumarin (Bachem, I-1145) at 50 μM FAC. 384 Low volume black plates (Greiner #784076) were used. […] 4 μL, 100 μM substrate solution (25 mM Tris HCl, 250 mM NaCl, 0.01% Triton X-100, 5 mM Glutathione, pH 7.5) was added to each well. Plates were centrifuged at 1000 rpm and incubated for 20 min at rt in dark. […] Data were analyzed in Genedata Screener®.

In the next series the target is FAP Human Plasma (Homo sapiens (Human), UniProt Q12884). The series can be described thus: FAP plasma inhibition assay, human plasma. In kind it is biochemical. The following applies: human plasma dilution 1:40, Ala-Pro-AMC 75 μM; n = 1. On the procedure: (§1) This assay was adapted from the method described in Example 53 for detection of FAP target engagement enzyme activity in plasma. Plasma (anticoagulant K2EDTA) was used as the enzyme source: Human plasma (Pooled from AZ Biobank) and Mouse plasma (AZ AST Biobank). 384-Well black fluotrack PS plates (Greiner 781076) were used. 20 μL diluted plasma (Human plasma dilution 1:40, Mouse plasma dilution 1:67) in buffer (PBS, 0.1% BSA) was added to 0.6 μL compounds (in DMSO). Compounds were tested using 10 CR, 3-fold dilution series from 500 nM FAC. Two replicates for each assay point were run on the same plate. A fluorescence blank read was taken before substrate addition. Substrate, Ala-Pro-AMC (ARI-3144) stock solution (20 mM in DMSO) was diluted in buffer (PBS, 0.1% BSA) to 150 μM concentration and 20 μL added giving 75 μM FAC. Plates were incubated for 40 min at rt in the dark. The plates were read on a Beckman Paradigm® reader with excitation 360 nm and emission 465 nm. Data were analyzed in Excel (IDBS XLfit Add-In) using a one site dose response model (4-parameter logistic fit). […] Raw data signals were normalized using 1.5% DMSO in diluted plasma as 0% control and 1.5% DMSO in buffer (no plasma) as 100% inhibitor control.
Chain of FAP Human Plasma (Q12884 24-760 limits assumed): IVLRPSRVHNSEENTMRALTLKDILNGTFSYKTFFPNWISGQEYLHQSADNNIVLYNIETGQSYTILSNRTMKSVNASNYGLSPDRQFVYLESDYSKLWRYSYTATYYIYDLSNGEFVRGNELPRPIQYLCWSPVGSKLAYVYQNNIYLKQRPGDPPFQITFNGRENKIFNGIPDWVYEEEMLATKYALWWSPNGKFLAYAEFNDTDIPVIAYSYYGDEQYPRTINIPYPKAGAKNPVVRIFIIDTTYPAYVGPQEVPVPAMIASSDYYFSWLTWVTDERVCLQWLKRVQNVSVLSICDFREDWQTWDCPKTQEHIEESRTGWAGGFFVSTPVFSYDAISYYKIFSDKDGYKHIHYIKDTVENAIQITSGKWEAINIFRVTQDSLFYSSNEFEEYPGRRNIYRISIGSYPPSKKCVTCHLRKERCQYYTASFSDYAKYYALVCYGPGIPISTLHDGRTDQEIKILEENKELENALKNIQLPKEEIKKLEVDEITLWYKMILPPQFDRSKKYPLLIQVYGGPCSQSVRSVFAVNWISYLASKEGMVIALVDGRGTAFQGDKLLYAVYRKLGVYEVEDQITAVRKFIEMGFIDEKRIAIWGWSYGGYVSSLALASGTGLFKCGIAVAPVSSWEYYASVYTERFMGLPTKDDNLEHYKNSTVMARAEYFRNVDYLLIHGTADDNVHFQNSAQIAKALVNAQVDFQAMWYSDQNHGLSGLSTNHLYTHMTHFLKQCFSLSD

Series [2] can be described thus: Metabolic stability in human liver microsomes (HLM). It counts as in vitro ADME. Here is the method: Metabolic stability in HLM was measured as described in J Comput Aided Mol Des 2015, 29, 795.
A further series has as its target FAP Mouse Plasma (Mus musculus (Mouse), UniProt P97321). Description: FAP plasma inhibition assay, mouse plasma. It counts as biochemical. The following applies: mouse plasma dilution 1:67, Ala-Pro-AMC 75 μM; n = 1. Here is the method:
as §1

The next series has as its system Rat Hepatocytes (rHep). The series can be described thus: Metabolic stability in rat hepatocytes (rHep). In kind it is in vitro ADME. On the procedure:
Metabolic stability in rat hepatocytes was measured as described in J Comput Aided Mol Des 2015, 29, 795.

The nature of a further series: Kinetic solubility. It counts as physicochemical. The following applies: kinetic from dmso stock. Here is the method:
Kinetic solubility was measured as described in Comput Aided Mol Des 2015, 29, 795.

The next series deals with hFAP (Homo sapiens (Human), UniProt Q12884).
Chain of hFAP (Q12884 38-760): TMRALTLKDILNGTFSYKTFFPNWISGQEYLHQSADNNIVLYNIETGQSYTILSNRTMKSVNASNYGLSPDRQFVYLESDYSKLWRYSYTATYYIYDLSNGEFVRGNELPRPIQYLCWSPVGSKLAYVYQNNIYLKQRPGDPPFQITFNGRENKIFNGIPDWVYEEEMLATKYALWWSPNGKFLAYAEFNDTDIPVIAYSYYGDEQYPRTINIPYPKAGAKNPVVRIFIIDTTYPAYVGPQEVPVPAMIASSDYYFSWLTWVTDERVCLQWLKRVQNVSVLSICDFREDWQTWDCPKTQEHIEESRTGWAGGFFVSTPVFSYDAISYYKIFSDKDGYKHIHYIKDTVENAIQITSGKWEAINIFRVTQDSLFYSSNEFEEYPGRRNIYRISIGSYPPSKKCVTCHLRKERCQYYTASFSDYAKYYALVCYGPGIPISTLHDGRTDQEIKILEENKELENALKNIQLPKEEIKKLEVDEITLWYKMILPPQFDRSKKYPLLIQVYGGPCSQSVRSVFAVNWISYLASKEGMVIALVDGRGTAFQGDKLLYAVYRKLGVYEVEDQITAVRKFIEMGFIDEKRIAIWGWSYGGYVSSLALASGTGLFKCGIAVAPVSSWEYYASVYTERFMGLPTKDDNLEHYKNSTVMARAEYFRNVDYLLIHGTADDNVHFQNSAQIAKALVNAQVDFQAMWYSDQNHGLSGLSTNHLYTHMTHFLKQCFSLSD
Series [3] concerns the target human Fibroblast activation protein alpha (hFAP) (Homo sapiens (Human), UniProt Q12884). The series can be described thus: hFAP inhibition assay (tight binders). Conditions: tight-binder format, Ala-Pro-AMC 20 μM, 2.5 h incubation; n = 1 or geometric mean (n = 5-10). It counts as biochemical. On the procedure: Data were analyzed in Genedata Screener®.
In a further series the test system is Human Hepatocytes (hHep). Description: Metabolic stability in human hepatocytes (hHep). In kind it is in vitro ADME. On the procedure: Metabolic stability in human hepatocytes was measured as described in Xenobiotica 2010, 40, 637.
A further series addresses hFAP (M39-A757) (Homo sapiens (Human), UniProt Q12884).

Chain of human Fibroblast activation protein alpha (hFAP) (Q12884 38-760): as above
Chain of FAP Mouse Plasma (P97321 24-761 limits assumed): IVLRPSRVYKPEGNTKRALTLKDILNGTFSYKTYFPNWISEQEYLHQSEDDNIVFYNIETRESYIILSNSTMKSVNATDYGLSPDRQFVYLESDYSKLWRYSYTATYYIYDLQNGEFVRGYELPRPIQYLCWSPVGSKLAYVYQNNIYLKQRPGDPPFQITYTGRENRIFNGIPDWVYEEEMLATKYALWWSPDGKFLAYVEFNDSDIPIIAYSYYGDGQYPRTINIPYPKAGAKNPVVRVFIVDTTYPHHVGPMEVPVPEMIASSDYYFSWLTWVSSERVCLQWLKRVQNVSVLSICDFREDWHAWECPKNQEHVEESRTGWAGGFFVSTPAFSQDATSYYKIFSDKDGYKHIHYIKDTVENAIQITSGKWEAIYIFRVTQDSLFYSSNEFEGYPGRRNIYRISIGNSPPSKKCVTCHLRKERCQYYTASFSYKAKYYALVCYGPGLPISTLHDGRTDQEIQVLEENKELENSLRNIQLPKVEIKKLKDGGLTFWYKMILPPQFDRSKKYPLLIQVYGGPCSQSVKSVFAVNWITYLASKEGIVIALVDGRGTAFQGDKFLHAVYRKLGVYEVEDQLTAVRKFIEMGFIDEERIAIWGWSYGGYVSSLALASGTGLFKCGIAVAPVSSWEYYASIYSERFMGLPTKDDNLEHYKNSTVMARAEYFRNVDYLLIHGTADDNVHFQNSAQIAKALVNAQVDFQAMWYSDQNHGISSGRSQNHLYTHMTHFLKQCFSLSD
Chain of hFAP (M39-A757) (Q12884 39-757): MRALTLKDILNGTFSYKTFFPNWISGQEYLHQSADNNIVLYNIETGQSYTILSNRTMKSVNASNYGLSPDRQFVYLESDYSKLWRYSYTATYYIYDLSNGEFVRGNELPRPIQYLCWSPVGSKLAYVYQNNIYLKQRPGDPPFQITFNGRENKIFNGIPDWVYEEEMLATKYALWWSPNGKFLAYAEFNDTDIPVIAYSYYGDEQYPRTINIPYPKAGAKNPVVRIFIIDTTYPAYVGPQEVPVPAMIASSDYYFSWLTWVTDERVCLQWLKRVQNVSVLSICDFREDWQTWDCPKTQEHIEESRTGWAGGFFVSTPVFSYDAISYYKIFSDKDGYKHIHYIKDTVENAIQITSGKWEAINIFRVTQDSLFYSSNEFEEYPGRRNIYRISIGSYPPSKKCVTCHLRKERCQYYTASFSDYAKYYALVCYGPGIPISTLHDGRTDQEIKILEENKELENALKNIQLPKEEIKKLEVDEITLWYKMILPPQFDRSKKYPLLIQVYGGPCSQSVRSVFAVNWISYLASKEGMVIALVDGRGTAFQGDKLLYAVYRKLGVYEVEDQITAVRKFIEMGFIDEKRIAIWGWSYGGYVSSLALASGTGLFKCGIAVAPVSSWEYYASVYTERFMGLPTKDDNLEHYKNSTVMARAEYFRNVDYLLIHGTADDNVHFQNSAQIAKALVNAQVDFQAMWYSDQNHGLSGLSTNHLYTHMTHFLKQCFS
Chain of Prolyl Oligopeptidase (hPREP) (P48147 whole entry): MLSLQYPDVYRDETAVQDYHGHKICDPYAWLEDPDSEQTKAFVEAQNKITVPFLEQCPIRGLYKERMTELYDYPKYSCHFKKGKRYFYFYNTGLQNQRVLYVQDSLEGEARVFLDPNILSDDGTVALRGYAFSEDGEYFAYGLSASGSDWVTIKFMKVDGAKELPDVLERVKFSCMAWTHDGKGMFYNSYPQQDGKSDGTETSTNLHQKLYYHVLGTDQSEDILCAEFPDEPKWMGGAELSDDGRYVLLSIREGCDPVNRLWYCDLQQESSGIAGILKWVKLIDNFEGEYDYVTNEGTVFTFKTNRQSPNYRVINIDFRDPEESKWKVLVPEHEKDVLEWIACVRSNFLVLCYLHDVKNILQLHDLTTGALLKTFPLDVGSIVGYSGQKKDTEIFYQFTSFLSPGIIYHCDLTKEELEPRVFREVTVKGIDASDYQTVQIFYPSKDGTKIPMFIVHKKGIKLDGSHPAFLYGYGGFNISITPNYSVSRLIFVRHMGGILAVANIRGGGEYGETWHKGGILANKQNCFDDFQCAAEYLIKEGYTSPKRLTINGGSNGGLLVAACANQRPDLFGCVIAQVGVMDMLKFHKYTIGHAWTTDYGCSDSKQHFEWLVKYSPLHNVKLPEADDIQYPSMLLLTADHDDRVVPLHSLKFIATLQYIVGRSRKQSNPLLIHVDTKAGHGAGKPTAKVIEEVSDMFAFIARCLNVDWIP
Procedure for hFAP (M39-A757): Compounds were tested in a direct binding assay using 8K surface plasmon resonance biosensor (GE Healthcare) at 20° C. Immobilization of hFAP (M39-A757) on a CMD200M sensor chip (Xantec) was performed using standard amine coupling procedure in immobilization buffer (10 mM HEPES, 150 mM NaCl, 0.05% Tween20, pH 7.4). The surface was washed with 10 mM NaOH, 1M NaCl before being activated with EDC/NHS (GE Healthcare), followed by immobilization of hFAP (in 10 mM Acetate pH 5.0). Finally, the surface was deactivated by ethanolamine. Immobilization levels of hFAP were around 4000-6000 RU. The reference spot was treated as described, omitting the injection of hFAP. Compound concentration series were injected over the immobilized protein in increasing concentrations (2-500 nM) using single cycle kinetics in running buffer (20 mM TRIS, 150 mM NaCl, 0.05% Tween20, 1% DMSO, pH 7.4). Interaction models were fitted globally to the experimental traces, enabling determination of kon, koff and Kd.

`N#C[C@@H]1C[C@@H]2C[C@@H]2N1C(=O)CNC(=O)c1ccnc2ccc(Br)cc12` [Example 1, 6-Bromo-N-(2-((1S,3S,5S)-3-cyano-2-azabicyclo[3.1.0]hexan-2-yl)-2-oxoethyl)quinoline-4-carboxamide]: the IC50 worked out at 27000 nM in series [1]; 23 nM on FAP Human Plasma; 20 nM at FAP Mouse Plasma; 2 nM against hFAP; 0.44 nM in [3]. Further, the microsomal CLint in series [2] was found to be 9.7 µL/min/mg. Further, in the series on Rat Hepatocytes (rHep), the “rHeps CLint” value was 3.8 μL/min/1E6. The compound also gave a solubility in the series “Kinetic solubility” of 290 µM (≈ 116 µg/mL). The “hHep CLint” value in the series with Human Hepatocytes (hHep) turned out to be 2.8 μL/min/1E6.

As to `Cc1ccc2nccc(C(=O)NCC(=O)N3[C@H](C#N)C[C@@H]4C[C@@H]43)c2c1` [Example 9, N-(2-((1S,3S,5S)-3-Cyano-2-azabicyclo[3.1.0]hexan-2-yl)-2-oxoethyl)-6-methylquinoline-4-carboxamide], the IC50 in series [1] is greater than 50000 nM; on FAP Human Plasma, 7.5 nM; against FAP Mouse Plasma it was 2.7 nM; against hFAP, less than 2.8 nM; in series [3], 0.56 nM.

As to `N#C[C@@H]1C[C@@H]2C[C@@H]2N1C(=O)CNC(=O)c1ccnc2ccc(C(F)(F)F)cc12` [Example 10, N-(2-((1S,3S,5S)-3-Cyano-2-azabicyclo[3.1.0]hexan-2-yl)-2-oxoethyl)-6-(trifluoromethyl)quinoline-4-carboxamide], the IC50 in series [1] was greater than 50000 nM; at FAP Human Plasma, 34 nM; against FAP Mouse Plasma, 15 nM; against hFAP it was 4.8 nM. Further, the intrinsic metabolic clearance (microsomal CLint) in [2] amounted to 37 µL/min/mg. Moreover, in the series on Rat Hepatocytes (rHep), the “rHeps CLint” value came out at 6.7 μL/min/1E6. Also, in “Kinetic solubility”, the concentration in solution (solubility) came to 140 µM (≈ 54.4 µg/mL). Further, the “hHep CLint” value with Human Hepatocytes (hHep) is 7 μL/min/1E6.

As to `N#C[C@@H]1C[C@@H]2C[C@@H]2N1C(=O)CNC(=O)c1ccnc2cc(CF)ccc12` [Example 24, N-(2-((1S,3S,5S)-3-Cyano-2-azabicyclo[3.1.0]hexan-2-yl)-2-oxoethyl)-7-(fluoromethyl)quinoline-4-carboxamide], the results for the IC50 (in [1]; against hFAP; in series [3]) were greater than 45000 nM, 1.2 nM and 0.3 nM, respectively. This compound also showed a microsomal CLint in [2] of less than 3 µL/min/mg. The compound also gave a Kd on hFAP (M39-A757) of 8.2 nM. The “rHeps CLint” value with Rat Hepatocytes (rHep) is reported as 2.7 μL/min/1E6. In “Kinetic solubility”, this compound displayed a solubility greater than 1000 µM.

For `COC(C)(C)c1ccc2c(C(=O)NCC(=O)N3[C@H](C#N)C[C@@H]4C[C@@H]43)ccnc2c1` [Example 28, N-(2-((1S,3S,5S)-3-Cyano-2-azabicyclo[3.1.0]hexan-2-yl)-2-oxoethyl)-7-(2-methoxypropan-2-yl)quinoline-4-carboxamide], the figures for the IC50 (in series [1]; against hFAP; in series [3]) were greater than 50000 nM, 4.6 nM and 1.3 nM, respectively. Besides, the intrinsic metabolic clearance (microsomal CLint) in [2] turned out to be 36 µL/min/mg. This compound gave a Kd at hFAP (M39-A757) of 7.8 nM. In addition, the “rHeps CLint” value in the series on Rat Hepatocytes (rHep) is reported as 5.2 μL/min/1E6. This compound had a solubility in “Kinetic solubility” greater than 1000 µM.

With `N#C[C@@H]1C[C@@H]2C[C@@H]2N1C(=O)CNC(=O)c1ccnc2cc(COC(F)(F)F)ccc12` [Example 29, N-(2-((1S,3S,5S)-3-Cyano-2-azabicyclo[3.1.0]hexan-2-yl)-2-oxoethyl)-7-((trifluoromethoxy)methyl)quinoline-4-carboxamide], the values for the half-maximal inhibitory concentration (IC50) (in [1]; against hFAP; in [3]) were greater than 50000 nM, 1.3 nM and 0.3 nM, respectively. This compound also returned a microsomal CLint in series [2] of 8.9 µL/min/mg. This compound also came in with a Kd at hFAP (M39-A757) of 11 nM. The “rHeps CLint” value with Rat Hepatocytes (rHep) worked out at 81 μL/min/1E6. The compound further had a solubility in “Kinetic solubility” of 23 µM (≈ 9.62 µg/mL).

Regarding `N#C[C@@H]1C[C@@H]2C[C@@H]2N1C(=O)CNC(=O)c1ccnc2cc(C3(C(F)(F)F)CC3)ccc12` [Example 36, N-(2-((1S,3S,5S)-3-Cyano-2-azabicyclo[3.1.0]hexan-2-yl)-2-oxoethyl)-7-(1-(trifluoromethyl)cyclopropyl)quinoline-4-carboxamide], the results for the 50% inhibitory concentration (IC50) (in series [1]; on hFAP; in series [3]) were greater than 50000 nM, 3.4 nM and 0.58 nM, respectively. For the same compound, in series [2], the microsomal CLint amounted to 180 µL/min/mg. The same compound had a Kd at hFAP (M39-A757) of 4.3 nM. Also, the “rHeps CLint” value in the series on Rat Hepatocytes (rHep) worked out at 92 μL/min/1E6. The amount in solution in “Kinetic solubility” (solubility) came to 210 µM (≈ 90 µg/mL).

Consider `COc1ccc2c(C(=O)NCC(=O)N3[C@H](C#N)C[C@@H]4C[C@@H]43)cc(C)nc2c1` [Example 41, N-(2-((1S,3S,5S)-3-Cyano-2-azabicyclo[3.1.0]hexan-2-yl)-2-oxoethyl)-7-methoxy-2-methylquinoline-4-carboxamide], for which the concentration for half-maximal inhibition (IC50) came to 380 nM against FAP Human Plasma, 300 nM on FAP Mouse Plasma and 38 nM against hFAP. The compound further registered a microsomal CLint in series [2] of less than 3 µL/min/mg. Also, the “rHeps CLint” value in the series with Rat Hepatocytes (rHep) is recorded as less than 1 μL/min/1E6. In the series “Kinetic solubility”, this compound gave a solubility of 120 µM (≈ 43.7 µg/mL). Besides, in the series on Human Hepatocytes (hHep), the “hHep CLint” value is less than 1 μL/min/1E6.

On to `CC1(c2ccc3nccc(C(=O)NCC(=O)N4[C@H](C#N)C[C@@H]5C[C@@H]54)c3c2)CC1` [Example 43, N-(2-((1S,3S,5S)-3-Cyano-2-azabicyclo[3.1.0]hexan-2-yl)-2-oxoethyl)-6-(1-methylcyclopropyl)quinoline-4-carboxamide], for which the IC50 is greater than 50000 nM in series [1], 2.9 nM at hFAP and 0.56 nM in series [3]. In addition, the intrinsic metabolic clearance (microsomal CLint) in series [2] was 260 µL/min/mg. Besides, binding on hFAP (M39-A757) was put at a Kd of 11 nM. Further, the “rHeps CLint” value with Rat Hepatocytes (rHep) came out at 67 μL/min/1E6. This compound registered a solubility in the series “Kinetic solubility” of 820 µM (≈ 307 µg/mL).

For `N#C[C@@H]1C[C@@H]2C[C@@H]2N1C(=O)CNC(=O)c1ccnc2ccc(C3(C(F)(F)F)CC3)cc12` [Example 44, N-(2-((1S,3S,5S)-3-Cyano-2-azabicyclo[3.1.0]hexan-2-yl)-2-oxoethyl)-6-(1-(trifluoromethyl)cyclopropyl)quinoline-4-carboxamide], the results for the IC50 (in series [1]; on hFAP; in [3]) were greater than 50000 nM, 4.6 nM and 1.1 nM, respectively. This compound displayed a microsomal CLint in series [2] greater than 300 µL/min/mg. Besides, the Kd on hFAP (M39-A757) came to 12 nM. Further, the “rHeps CLint” value in the series on Rat Hepatocytes (rHep) turned out to be 150 μL/min/1E6. Also, in “Kinetic solubility”, the solubility is 510 µM (≈ 218 µg/mL).

In the case of `CCOC1(c2ccc3nccc(C(=O)NCC(=O)N4[C@H](C#N)C[C@@H]5C[C@@H]54)c3c2)CC1` [Example 45, N-(2-((1S,3S,5S)-3-Cyano-2-azabicyclo[3.1.0]hexan-2-yl)-2-oxoethyl)-6-(1-ethoxycyclopropyl)quinoline-4-carboxamide], the IC50 in [1] is greater than 50000 nM; at hFAP, 0.76 nM; in series [3] it was 0.25 nM. In series [2], this compound had an intrinsic metabolic clearance (microsomal CLint) of 120 µL/min/mg. In addition, on hFAP (M39-A757), the Kd is 7.3 nM. For the same compound, the “rHeps CLint” value in the series on Rat Hepatocytes (rHep) was found to be 40 μL/min/1E6. The compound also showed a solubility in the series “Kinetic solubility” greater than 1000 µM.

As to `N#C[C@@H]1C[C@@H]2C[C@@H]2N1C(=O)CNC(=O)c1ccnc2ccc(C3(C#N)CC3)cc12` [Example 46, N-(2-((1S,3S,5S)-3-Cyano-2-azabicyclo[3.1.0]hexan-2-yl)-2-oxoethyl)-6-(1-cyanocyclopropyl)quinoline-4-carboxamide], the figures for the IC50 (in series [1]; against hFAP; in [3]) were greater than 50000 nM, 1.7 nM and 0.18 nM, respectively. This compound also showed a microsomal CLint in [2] of 20 µL/min/mg. At hFAP (M39-A757), this compound returned a Kd of 25 nM. In the series on Rat Hepatocytes (rHep), the “rHeps CLint” value is 6.6 μL/min/1E6. The solubility in “Kinetic solubility” came out at 110 µM (≈ 42.4 µg/mL). The “hHep CLint” value in the series with Human Hepatocytes (hHep) is given as less than 1 μL/min/1E6.
